Experimental data reported in US20250263376A1, “(E)-N-CINNAMOYLAMINOALKANOLS WITH MELANOGENESIS INHIBITORY ACTIVITY” (Uniwersytet Jagiellonski, priority 2024, published 2025).

Legend:
[1] = test system: reconstructed human epidermis containing melanocytes MelanoDerm MEL-300-B; test: Melanogenesis inhibition in reconstructed human epidermis containing melanocytes (MelanoDerm); format: cell-based; conditions: 14 days, MTT
Protocol: Melanogenesis Inhibition Studies in a Model of Reconstructed Human Epidermis Containing Melanocytes (MelanoDerm by Mattek).
The research was carried out on reconstructed human epidermis containing melanocytes MelanoDerm™ MEL-300-B from MatTek (Bratislava, Slovakia). The ratio of keratinocytes to melanocytes in the epidermis used is 10:1. Only medium purchased from the same manufacturer (EPI-100-NMM-113) was used to culture the epidermis during the experiments. Once the epidermis was obtained, it was transferred to 12-well plates containing 5 mL of medium/well. Plates were used to enable proper contact of the lower parts of the inserts with the substrate (so-called hanging-top plate). Solutions of the compounds were prepared immediately before their application. The solutions were applied to the inserts using a positive displacement pipette and then distributed using a sterile glass bulb headed Pasteur pipette. The application was repeated every 48 hours, a total of 7 applications were performed. Before the next application, each insert was rinsed with sterile DPBS and dried with a sterile cotton buds. The application was also accompanied by a change of the medium. […] The epidermis was cultured in an incubator ensuring appropriate humidity, temperature (37° C.) and CO2 concentration (5%).
The experiment was conducted for 14 days. After this time, the inserts were rinsed with DPBS and dried with a cotton swab. For the selected pool of inserts, tissue viability was assessed using the MTT (Thiazolyl Blue Tetrazolium bromide) test, the remaining ones were used to determine the amount of melanin. To assess viability, the inserts were transferred to 24-well plate containing 0.3 mL of DMEM medium with 1 mg/mL MTT and incubated for 3 hours in an incubator. The epidermis was then placed in 2 mL of isopropanol and the resulting formazan was extracted for 2 hours at room temperature. The absorbance of the samples was measured at 570 nm in a microplate reader and correlated with the absorbance of the control by the formula: % Viability=[OD (570 nm) for test compound/OD (570 nm) for control]×100. To determine the amount of melanin, the inserts were incubated in 5% sodium bicarbonate for 30 min, then dried and placed in 0.5 mL of Solvable™ reagent, which caused complete lysis of the epidermis. After heating at 95° C., the absorbance of the samples was measured at 405 nm in a microplate reader. On this basis, the reduction in the amount of melanin was calculated in relation to the control sample. The absorbance results were also correlated with a standard curve for synthetic melanin.

keratinocytes (HaCaT) = test: Safety, LDH test in keratinocytes; format: cell-based; conditions: 48 hours, vs Triton X-100
Protocol: (§1) In order to test the safety of the compounds, both normal human cells were used: keratinocytes (HaCaT), fibroblasts (BJ), primary melanocytes that occur in the skin, as well as human cancer cells: the hepatocarcinoma line HepG2 and the neuroblastoma line SH-SY5Y, which are considered a model for the assessment of hepatocytotoxicity and neurocytotoxicity. The concentrations of the tested compounds in the range of […] were used in the studies. The cell lines used in the research were purchased from the American Type Culture Collection (ATCC) and were cultured in media recommended by the manufacturer with the addition of FBS and antibiotics in an incubator ensuring appropriate culture conditions, i.e. humidity, temperature and CO2 concentration. Cells were seeded into multiwell plates and incubated with the test compounds for 48 hours. After this time, MTT and LDH tests were performed to assess cell viability. The MTT test is based on the ability to transform the substrate: [3-(4,5-dimethyl-2-thiazolyl)-2,5-diphenyl-2H-tetrazolium bromide into a colored product only by living cells. The absorbance at 570 nm, which corresponds to the absorption maximum for the product, is directly proportional to cell viability. The LDH test is based on testing the activity of the enzyme lactate dehydrogenase in the culture medium, which is released from cells as a result of damage to the cell membrane, e.g. as a result of cell death. Triton X-100 was used as a positive control in the test. The determination is colorimetric, the substrate is transformed by the released enzyme into a colored product, an increase in absorbance indicates a larger amount of the released enzyme, and thus confirms greater damage to cell membranes. Tables 7 and 8 present the results obtained, which correspond to the viability of cells incubated with the compounds in relation to the viability of cells constituting a control sample, i.e. incubated with the solvent (DMSO) at the same concentration as in the case of the groups tested in the MTT test or in relation to the results obtained for the Triton X-100 positive control in the LDH test. They indicate that the compounds are safe at the concentrations tested.

fibroblasts (BJ) = test: Safety, MTT test in fibroblasts; format: cell-based; conditions: 48 hours
Protocol: as §1

primary melanocytes = test: Safety, LDH test in primary melanocytes; format: cell-based; conditions: 48 hours, vs Triton X-100
Protocol: as §1

neuroblastoma SH-SY5Y = test: Safety, LDH test in SH-SY5Y; format: cell-based; conditions: 48 hours, vs Triton X-100
Protocol: as §1

S. typhimurium TA98 = test: Ames microplate test, TA98; format: cell-based, Salmonella typhimurium
Protocol: (§2) Bacteria were grown overnight in growth medium.

S. typhimurium TA1537 = test: Ames microplate test, TA1537; format: cell-based, Salmonella typhimurium
Protocol: as §2

Compound	Viability [% control, mean ± SD] ([1]; 1.0% in 50% PEG (10 μL)) [% control]	LDH, Keratinocytes (HaCaT) (keratinocytes (HaCaT); 100 μM)	LDH, Keratinocytes (HaCaT) (keratinocytes (HaCaT); 150 μM)	LDH, Keratinocytes (HaCaT) (keratinocytes (HaCaT); 200 μM)	LDH, Keratinocytes (HaCaT) (keratinocytes (HaCaT); 250 μM)	MTT, Fibroblasts (BJ) (fibroblasts (BJ); 100 μM)	MTT, Fibroblasts (BJ) (fibroblasts (BJ); 150 μM)	MTT, Fibroblasts (BJ) (fibroblasts (BJ); 200 μM)	Increase in the number of yellow wells compared to the reference level, TA98 (S. typhimurium TA98; 0.5 mM, + S9)	Increase in the number of yellow wells compared to the reference level, TA98 (S. typhimurium TA98; 0.5 mM, without S9)	Increase in the number of yellow wells compared to the reference level, TA98 (S. typhimurium TA98; 1.0 mM, + S9)	Increase in the number of yellow wells compared to the reference level, TA98 (S. typhimurium TA98; 1.0 mM, without S9)	Increase in the number of yellow wells compared to the reference level, TA98 (S. typhimurium TA98; 2.0 mM, + S9)	Increase in the number of yellow wells compared to the reference level, TA98 (S. typhimurium TA98; 2.0 mM, without S9)	Increase in the number of yellow wells compared to the reference level, TA1537 (S. typhimurium TA1537; 0.5 mM, + S9)	Increase in the number of yellow wells compared to the reference level, TA1537 (S. typhimurium TA1537; 0.5 mM, without S9)	Increase in the number of yellow wells compared to the reference level, TA1537 (S. typhimurium TA1537; 1.0 mM, + S9)	Increase in the number of yellow wells compared to the reference level, TA1537 (S. typhimurium TA1537; 1.0 mM, without S9)	Increase in the number of yellow wells compared to the reference level, TA1537 (S. typhimurium TA1537; 2.0 mM, + S9)	Increase in the number of yellow wells compared to the reference level, TA1537 (S. typhimurium TA1537; 2.0 mM, without S9)	also measured
O=C(/C=C/c1ccc(Cl)cc1)NCCCCCO [Compound A-111, (2E)-3-(4-chlorophenyl)-N-(5-hydroxypentyl)prop-2-enamide]	101.45 ± 6.45	4.69 percentage of positive control	4.43 percentage of positive control	6.49 percentage of positive control	13.55 percentage of positive control	99.88 ± 5.25 % of solvent control	100.94 ± 3.37 % of solvent control	98.94 ± 4.04 % of solvent control	1.50	0.7	0.83	0.44	1.50	1.00	0.27	0.80	0.45	0.54	0.27	0.54	Viability [% control, mean ± SD] ([1]; 1.0% in 50% PEG (25 μL)): 85.67 ± 7.25 % control; Viability [% control, mean ± SD] ([1]; 2.0% in 50% PEG (25 μL)): 106.64 ± 7.78 % control; MTT, Fibroblasts (BJ) (fibroblasts (BJ); 250 μM): 94.51 ± 5.03 % of solvent control; LDH, Primary melanocytes (primary melanocytes; 100 μM): 3.31 percentage of positive control; LDH, Primary melanocytes (primary melanocytes; 150 μM): 4.95 percentage of positive control; LDH, Primary melanocytes (primary melanocytes; 200 μM): 13.38 percentage of positive control; LDH, Primary melanocytes (primary melanocytes; 250 μM): 18.41 percentage of positive control; LDH, Neuroblastoma SH-SY5Y (neuroblastoma SH-SY5Y; 100 μM): 4.90 percentage of positive control; LDH, Neuroblastoma SH-SY5Y (neuroblastoma SH-SY5Y; 150 μM): 4.61 percentage of positive control; LDH, Neuroblastoma SH-SY5Y (neuroblastoma SH-SY5Y; 200 μM): 5.98 percentage of positive control; LDH, Neuroblastoma SH-SY5Y (neuroblastoma SH-SY5Y; 250 μM): 6.77 percentage of positive control
O=C(/C=C/c1ccccc1)NCCCCCO [Compound A-133, (2E)-N-(5-hydroxypentyl)-3-phenylprop-2-enamide]	101.22 ± 6.52	3.23 percentage of positive control	3.08 percentage of positive control	6.38 percentage of positive control	19.58 percentage of positive control	99.41 ± 5.96 % of solvent control	91.68 ± 3.64 % of solvent control	87.76 ± 2.71 % of solvent control	0.50	0.44	0.67	0.33	1.00	0.67	0.18	1.07	0.36	0.54	0.27	0.54	MTT, Fibroblasts (BJ) (fibroblasts (BJ); 250 μM): 82.50 ± 3.99 % of solvent control; LDH, Primary melanocytes (primary melanocytes; 100 μM): 4.68 percentage of positive control; LDH, Primary melanocytes (primary melanocytes; 150 μM): 7.59 percentage of positive control; LDH, Primary melanocytes (primary melanocytes; 200 μM): 16.71 percentage of positive control; LDH, Primary melanocytes (primary melanocytes; 250 μM): 19.45 percentage of positive control; LDH, Neuroblastoma SH-SY5Y (neuroblastoma SH-SY5Y; 100 μM): 5.33 percentage of positive control; LDH, Neuroblastoma SH-SY5Y (neuroblastoma SH-SY5Y; 150 μM): 6.93 percentage of positive control; LDH, Neuroblastoma SH-SY5Y (neuroblastoma SH-SY5Y; 200 μM): 8.49 percentage of positive control; LDH, Neuroblastoma SH-SY5Y (neuroblastoma SH-SY5Y; 250 μM): 13.32 percentage of positive control
O=C(/C=C/c1ccccc1)NCCCCCCO [H-425/21, (E)-N-(6-hydroxyhexyl)cinnamic acid amide]	87.16 ± 6.30								0.42	0.27	0.42	0.54	0.63	0.80	1.33	0.09	0.00	0.18	1.00	0.82	
